Data from patent publication US11566002B2, “Substituted tetrahydrocyclopenta[C]pyrroles, substituted dihydropyrrolizines, analogues thereof, and methods using same” (priority 2018, dated 2023).
Read-outs that look alike come from different tables or passages of the source.

Test system: HBV rcDNA
Experiment: HepDE19 assay with bDNA quantitation of HBV rcDNA
Assay type: cell-based, hepatitis B virus
Method: HepDE19 Assay with bDNA Quantitation of HBV rcDNA:
HepDE19 cell culture system is a HepG2 (human hepatocarcinoma) derived cell line that supports HBV DNA replication and cccDNA formation in a tetracycline (Tet)-regulated manner and produces HBV rcDNA and a detectable reporter molecule dependent on the production and maintenance of cccDNA (Guo, et al., 2007, J. Virol. 81:12472-12484).
HepDE19 (50,000 cells/well) were plated in 96-well collagen-coated tissue-culture treated microtiter plates in DMEM/F12 medium supplemented with 10% fetal bovine serum, 1% penicillin-streptomycin and 1 μg/mL tetracycline and incubated in a humidified incubator at 37° C. and 5% CO2 overnight. Next day, the cells were switched to fresh medium without tetracycline and incubated for 4 hours at 37° C. and 5% CO2. The cells were treated with fresh Tet-free medium with compounds at concentrations starting at 25 μM and a serial, ½ log, 8-point, titration series in duplicate. The final DMSO concentration in the assay was 0.5%. The plates were incubated for 7 days in a humidified incubator at 37° C. and 5% CO2. Following a 7 day-incubation, the level of rcDNA present in the inhibitor-treated wells was measured using a Quantigene 2.0 bDNA assay kit (Affymetrix, Santa Clara, Calif.) with HBV specific custom probe set and manufacturers instructions. Concurrently, the effect of compounds on cell viability was assessed using replicate plates, plated at a density of 5,000 cells/well and incubated for 4 days, to determine the ATP content as a measure of cell viability using the cell-titer glo reagent (CTG; Promega Corporation, Madison, Wis.) as per manufacturer's instructions. The plates were read using a Victor luminescence plate reader (PerkinElmer Model 1420 Multilabel counter) and the relative luminescence units (RLU) data generated from each well was calculated as % inhibition of the untreated control wells and analyzed using XL-Fit module in Microsoft Excel to determine EC50 and EC90 (bDNA) and CC50 (CTG) values using a 4-parameter curve fitting algorithm.
Representative compounds of the invention were tested for their abilities to inhibit formation of relaxed circular DNA (rcDNA) in a HepDE19 assay, as described elsewhere herein.

[1] = HepDE19 cells, Tet-free medium, 7 day-incubation, rcDNA measured by Quantigene 2.0 bDNA assay, top concentration 25 μM, read-out: DE-19 bDNA EC50
[2] = Hepatitis B virus, HepDE19, 168 h, HepDE19 cells, Tet-free medium, 7 day-incubation, rcDNA measured by Quantigene 2.0 bDNA assay, top concentration 25 μM, read-out: DE-19 bDNA EC50
[3] = read-out: DE-19 bDNA EC50, HepDE19 cells, Tet-free medium, 7 day-incubation, rcDNA measured by Quantigene 2.0 bDNA assay, top concentration 25 μM

Cn1cc2c(c1C(=O)Nc1ccc(F)c(Cl)c1)CCC2NC(=O)OCC1(C(N)=O)CC(F)(F)C1 (single isomer, unassigned) [Compound 55, (1-Carbamoyl-3,3-difluorocyclobutyl)methyl(1-((3-chloro-4-fluorophenyl)carbamoyl)-2-methyl-2,4,5,6-tetrahydrocyclopenta[c]pyrrol-4-yl)carbamate]
EC50 [1]: 4.4 µM

Cn1cc2c(c1C(=O)Nc1ccc(F)c(Cl)c1)CCC2NC(=O)OCC1(C(N)=O)CC(F)(F)C1 (single isomer, unassigned) [Compound 56, (1-Carbamoyl-3,3-difluorocyclobutyl)methyl (1-((3-chloro-4-fluorophenyl)carbamoyl)-2-methyl-2,4,5,6-tetrahydrocyclopenta[c]pyrrol-4-yl)carbamate]
EC50 [1]: 0.6 µM

Cn1cc2c(c1C(=O)Nc1ccc(F)c(Cl)c1)CCC2NC(=O)OCc1nc[nH]n1 (single isomer, unassigned) [Compound 57, (1H-1,2,4-Triazol-3-yl)methyl (1-((3-chloro-4-fluorophenyl)carbamoyl)-2-methyl-2,4,5,6-tetrahydrocyclopenta[c]pyrrol-4-yl)carbamate]
EC50 [1]: 0.05 µM

Cn1cc2c(c1C(=O)Nc1ccc(F)c(Cl)c1)CCC2NC(=O)OCc1nc[nH]n1 (single isomer, unassigned) [Compound 58, (1H-1,2,4-Triazol-3-yl)methyl (1-((3-chloro-4-fluorophenyl)carbamoyl)-2-methyl-2,4,5,6-tetrahydrocyclopenta[c]pyrrol-4-yl)carbamate]
EC50 [1]: 0.97 µM

Cn1cc2c(c1C(=O)Nc1ccc(F)c(Cl)c1)CCC2NC(=O)OCc1c[nH]nn1 (single isomer, unassigned) [Compound 59, (1H-1,2,3-Triazol-4-yl)methyl (1-((3-chloro-4-fluorophenyl)carbamoyl)-2-methyl-2,4,5,6-tetrahydrocyclopenta[c]pyrrol-4-yl)carbamate]
EC50 [1]: 4.2 µM

Cn1cc2c(c1C(=O)Nc1ccc(F)c(Cl)c1)CCC2NC(=O)OCc1c[nH]nn1 (single isomer, unassigned) [Compound 60, (1H-1,2,3-Triazol-4-yl)methyl (1-((3-chloro-4-fluorophenyl)carbamoyl)-2-methyl-2,4,5,6-tetrahydrocyclopenta[c]pyrrol-4-yl)carbamate]
EC50 [1]: 0.06 µM

Cc1cc(NC(=O)c2c3c(cn2C)C(NC(=O)OCc2ncn(C)n2)CC3)ccc1F (single isomer, unassigned) [Compound 62, (1-methyl-1H-1,2,4-triazol-3-yl)methyl (1-((4-fluoro-3-methylphenyl)carbamoyl)-2-methyl-2,4,5,6-tetrahydrocyclopenta[c]pyrrol-4-yl)carbamate]
EC50 [2]: 0.09 µM

Cn1cnc(COC(=O)NC2CCc3c2cn(C)c3C(=O)Nc2ccc(F)c(F)c2)n1 (single isomer, unassigned) [Compound 64, (1-methyl-1H-1,2,4-triazol-3-yl)methyl (1-((3,4-difluorophenyl)carbamoyl)-2-methyl-2,4,5,6-tetrahydrocyclopenta[c]pyrrol-4-yl)carbamate]
EC50 [2]: 0.41 µM

Cn1cnc(COC(=O)NC2CCc3c2cn(C)c3C(=O)Nc2ccc(F)cc2)n1 (single isomer, unassigned) [Compound 65, (1-methyl-1H-1,2,4-triazol-3-yl)methyl (1-((4-fluorophenyl)carbamoyl)-2-methyl-2,4,5,6-tetrahydrocyclopenta[c]pyrrol-4-yl)carbamate]
EC50 [2]: 0.81 µM

Cn1cnc(COC(=O)NC2CCc3c2cn(C)c3C(=O)Nc2cccc(F)c2)n1 (single isomer, unassigned) [Compound 66, (1-methyl-1H-1,2,4-triazol-3-yl)methyl (1-((3-fluorophenyl)carbamoyl)-2-methyl-2,4,5,6-tetrahydrocyclopenta[c]pyrrol-4-yl)carbamate]
EC50 [2]: 0.9 µM

Cn1cnc(COC(=O)NC2CCc3c2cn(C)c3C(=O)Nc2ccc(F)c(C#N)c2)n1 (single isomer, unassigned) [Compound 67, (1-methyl-1H-1,2,4-triazol-3-yl)methyl (1-((3-cyano-4-fluorophenyl)carbamoyl)-2-methyl-2,4,5,6-tetrahydrocyclopenta[c]pyrrol-4-yl)carbamate]
EC50 [2]: 0.06 µM

Cn1cnc(COC(=O)NC2CCc3c2cn(C)c3C(=O)Nc2ccnc(Cl)c2)n1 (single isomer, unassigned) [Compound 68, (1-methyl-1H-1,2,4-triazol-3-yl)methyl (1-((2-chloropyridin-4-yl)carbamoyl)-2-methyl-2,4,5,6-tetrahydrocyclopenta[c]pyrrol-4-yl)carbamate]
EC50 [2]: 0.66 µM

Cn1cnc(COC(=O)NC2CCc3c2cn(C)c3C(=O)Nc2ccc(F)c(C(F)(F)F)c2)n1 (single isomer, unassigned) [Compound 69, (1-Methyl-1H-1,2,4-triazol-3-yl)methyl (1-((4-fluoro-3-(trifluoromethyl)phenyl)carbamoyl)-2-methyl-2,4,5,6-tetrahydrocyclopenta[c]pyrrol-4-yl)carbamate]
EC50 [2]: 0.28 µM

Cn1cnc(COC(=O)NC2CCc3c2cn(C)c3C(=O)Nc2ccc(F)c(C(F)F)c2)n1 (single isomer, unassigned) [Compound 70, (1-Methyl-1H-1,2,4-triazol-3-yl)methyl (1-((3-(difluoromethyl)-4-fluorophenyl)carbamoyl)-2-methyl-2,4,5,6-tetrahydrocyclopenta[c]pyrrol-4-yl)carbamate]
EC50 [2]: 0.07 µM

Cn1cnc(COC(=O)NC2CCc3c2cn(C)c3C(=O)Nc2cc(F)c(F)c(F)c2)n1 (single isomer, unassigned) [Compound 71, (1-methyl-1H-1,2,4-triazol-3-yl)methyl (2-methyl-1-((3,4,5-trifluorophenyl)carbamoyl)-2,4,5,6-tetrahydrocyclopenta[c]pyrrol-4-yl)carbamate]
EC50 [2]: 0.18 µM

Cn1cnc(COC(=O)NC2CCc3c2cn(C)c3C(=O)Nc2ccnc(C(F)(F)F)c2)n1 (single isomer, unassigned) [Compound 73, (1-methyl-1H-1,2,4-triazol-3-yl)methyl (2-methyl-1-((2-(trifluoromethyl)pyridin-4-yl)carbamoyl)-2,4,5,6-tetrahydrocyclopenta[c]pyrrol-4-yl)carbamate]
EC50 [2]: 0.54 µM

COC(=O)NC1CCCc2c1cn(C)c2C(=O)Nc1ccc(F)c(Cl)c1 (single isomer, unassigned) [Compound 74, Methyl (1-((3-chloro-4-fluorophenyl)carbamoyl)-2-methyl-4,5,6,7-tetrahydro-2H-isoindol-4-yl)carbamate]
EC50 (Hepatitis B virus, HepDE19, 168 h, read-out: DE-19 bDNA EC50 (μM), HepDE19 cells, Tet-free medium, 7 day-incubation, rcDNA measured by Quantigene 2.0 bDNA assay, top concentration 25 μM): 0.61 µM

Cn1cc2c(c1C(=O)Nc1ccc(F)c(Cl)c1)CCCC2N (single isomer, unassigned) [Compound 75, 4-Amino-N-(3-chloro-4-fluorophenyl)-2-methyl-4,5,6,7-tetrahydro-2H-isoindole-1-carboxamide]
EC50 [2]: 2.1 µM

Cn1cc2c(c1C(=O)Nc1ccc(F)c(Cl)c1)CCCC2NC(=O)C1CC1 (single isomer, unassigned) [Compound 76, N-(3-chloro-4-fluorophenyl)-4-(cyclopropanecarboxamido)-2-methyl-4,5,6,7-tetrahydro-2H-isoindole-1-carboxamide]
EC50 [2]: 1 µM

Cn1ccc(COC(=O)NC2CCCc3c2cn(C)c3C(=O)Nc2ccc(F)c(Cl)c2)n1 (single isomer, unassigned) [Compound 77, (1-Methyl-1H-pyrazol-3-yl)methyl(1-((3-chloro-4-fluorophenyl)carbamoyl)-2-methyl-4,5,6,7-tetrahydro-2H-isoindol-4-yl)carbamate]
EC50 [3]: 0.07 µM

Cn1cc2c(c1C(=O)Nc1ccc(F)c(Cl)c1)CCCC2NS(=O)(=O)C1CC1 (single isomer, unassigned) [Compound 78, N-(3-Chloro-4-fluorophenyl)-4-(cyclopropanesulfonamido)-2-methyl-4,5,6,7-tetrahydro-2H-isoindole-1-carboxamide]
EC50 [2]: 3.96 µM

COC(=O)NC1CCCCc2c1cn(C)c2C(=O)Nc1ccc(F)c(Cl)c1 (single isomer, unassigned) [Compound 79, Methyl (1-((3-chloro-4-fluorophenyl)carbamoyl)-2-methyl-2,4,5,6,7,8-hexahydrocyclohepta[c]pyrrol-4-yl)carbamate]
EC50 [3]: 0.73 µM
